The text below walks through data of ChEMBL document CHEMBL3351596, “Design, synthesis and anti-leishmanial activity of novel symmetrical bispyridinium cyclophanes” (Eur J Med Chem, 2015).

Molecules are shown by their SMILES. Activity calls are given as the source filed them. No cut-off for these calls is given here.

Series [1] deals with Leishmania major. In words: Anti-leishmanial activity against Leishmania major MHOM/JL/80/ Friedlin promastigotes incubated for 72 hrs at 28 degC. In kind it is functional, organism-based.
Series [2] concerns Leishmania donovani. In words: Anti-leishmanial activity against Leishmania donovani MHOM/IND/80/Dd8 promastigotes incubated for 72 hrs at 28 degC. As to conditions: MHOM/IND/80/Dd8, 72 h. It counts as functional, organism-based.
Series [3] concerns Leishmania major. The series can be described thus: Anti-leishmanial activity against Leishmania major MHOM/JL/80/ Friedlin amastigotes infected in human THP1 cells incubated for 72 hrs at 37 degC by DAPI staining based assay. The settings on record: THP-1, 72 h. In kind it is functional, organism-based.
Series [4] concerns Leishmania donovani. In words: Anti-leishmanial activity against Leishmania donovani MHOM/IND/80/Dd8 amastigotes infected in human THP1 cells incubated for 72 hrs at 37 degC by DAPI staining based assay. As to conditions: MHOM/IND/80/Dd8, THP-1, 72 h. It counts as functional, organism-based.
A short description of series [5]: Selectivity index, ratio of EC50 for human THP1 cells to EC50 for Leishmania major MHOM/JL/80/ Friedlin amastigotes infected in human THP1 cells. It counts as toxicity, cell-based, THP-1. As to conditions: read-out: Ratio EC50.
Series [6] is described as follows: Selectivity index, ratio of EC50 for human THP1 cells to EC50 for Leishmania donovani MHOM/IND/80/Dd8 amastigotes infected in human THP1 cells. As to conditions: read-out: Ratio EC50. It counts as toxicity, cell-based, THP-1.
Series [7] concerns THP-1. The series can be described thus: Cytotoxicity against human THP1 cells after 48 hrs by MTT assay. In kind it is cell-based. The settings on record: THP-1, 48 h. Background: Tetrazolium dyes change colour on reduction, which living cells bring about.
The test system of series [8] is Leishmania donovani. The series can be described thus: Anti-leishmanial activity against Leishmania donovani MHOM/IND/80/Dd8 promastigotes expressing pXG empty vector incubated for 72 hrs at 28 degC. It counts as functional, organism-based. The settings on record: MHOM/IND/80/Dd8, 72 h.
Series [9] concerns Leishmania donovani. The series can be described thus: Anti-leishmanial activity against Leishmania donovani MHOM/IND/80/Dd8 promastigotes expressing pXG-CEK incubated for 72 hrs at 28 degC. It counts as functional, organism-based. As to conditions: MHOM/IND/80/Dd8, 72 h.
Series [10] concerns Leishmania donovani. In words: Anti-leishmanial activity against Leishmania donovani MHOM/IND/80/Dd8 promastigotes expressing pXG-EK incubated for 72 hrs at 28 degC. In kind it is functional, organism-based. The settings on record: MHOM/IND/80/Dd8, 72 h.
Series [11] deals with Leishmania donovani. The series can be described thus: Anti-leishmanial activity against Leishmania donovani MHOM/IND/80/Dd8 amastigotes expressing pXG empty vector infected in human THP1 cells incubated for 72 hrs at 37 degC. As to conditions: MHOM/IND/80/Dd8, THP-1, 72 h. It counts as functional, organism-based.
For series [12], the system named is Leishmania donovani. The series can be described thus: Anti-leishmanial activity against Leishmania donovani MHOM/IND/80/Dd8 amastigotes expressing pXG-CEK infected in human THP1 cells incubated for 72 hrs at 37 degC. In kind it is functional, organism-based. The settings on record: MHOM/IND/80/Dd8, THP-1, 72 h.
For series [13], the system named is Leishmania donovani. In words: Anti-leishmanial activity against Leishmania donovani MHOM/IND/80/Dd8 amastigotes expressing pXG-EK infected in human THP1 cells incubated for 72 hrs at 37 degC. It counts as functional, organism-based. As to conditions: MHOM/IND/80/Dd8, THP-1, 72 h.
In series [14] the test system is Leishmania donovani. The series can be described thus: Anti-leishmanial activity against Leishmania donovani MHOM/IND/80/Dd8 promastigotes incubated for 72 hrs at 28 degC in presence of 10 mM choline. It counts as functional, organism-based. As to conditions: MHOM/IND/80/Dd8, 72 h.
For series [15], the system named is Leishmania donovani. The series can be described thus: Anti-leishmanial activity against Leishmania donovani MHOM/IND/80/Dd8 promastigotes incubated for 72 hrs at 28 degC in presence of 10 mM ethanolamine. It counts as functional, organism-based. As to conditions: MHOM/IND/80/Dd8, 72 h.
For series [16], the system named is Leishmania major. In words: Reduction in ATP level in Leishmania major MHOM/JL/80/ Friedlin promastigotes at 0.2 uM after 1 hr by cell-titer-Glo luminescence assay. It counts as functional.
For series [17], the system named is Leishmania major. In words: Reduction in ATP level in Leishmania major MHOM/JL/80/ Friedlin promastigotes at 0.2 uM measured up to 3 hrs by cell-titer-Glo luminescence assay. It counts as functional, organism-based.
Series [18] deals with Leishmania donovani. The series can be described thus: Reduction in ATP level in Leishmania donovani MHOM/IND/80/Dd8 promastigotes at 30 uM after 3 hrs by cell-titer-Glo luminescence assay. It counts as functional, organism-based.
Series [19] deals with Leishmania major. The series can be described thus: Effect on mitochondrial membrane potential in Leishmania major MHOM/JL/80/ Friedlin promastigotes at 0.2 uM after 1 hr by […] dye based fluorescence assay. It counts as functional, organism-based.
Series [20] relates to Leishmania donovani. The series can be described thus: Effect on mitochondrial membrane potential in Leishmania donovani MHOM/IND/80/Dd8 promastigotes at 30 uM after 3 hrs by […] dye based fluorescence assay. It counts as functional, organism-based.
Series [21] concerns Leishmania donovani. The series can be described thus: Induction of plasma membrane depolarization in Leishmania donovani MHOM/IND/80/Dd8 promastigotes at 30 uM after 3 hrs by […] dye based fluorescence assay. In kind it is functional, organism-based.
For series [22], the system named is Leishmania major. In words: Induction of plasma membrane depolarization in Leishmania major MHOM/JL/80/ Friedlin promastigotes at 0.2 uM after 1 hr by […] dye based fluorescence assay. It counts as functional, organism-based.
Series [23] deals with Leishmania major. In words: Reduction in ATP level in Leishmania major MHOM/JL/80/ Friedlin promastigotes at 30 uM after 3 hrs by cell-titer-Glo luminescence assay. It counts as functional.
Series [24] can be described thus: Selectivity index, ratio of EC50 for Leishmania donovani MHOM/IND/80/Dd8 promastigotes to EC50 for Leishmania major MHOM/JL/80/ Friedlin promastigotes. In kind it is functional.

Usually EC50 stands for the concentration needed to bring the measured effect to its halfway point. With `c1c[n+]2ccc1NCCCCCNc1cc[n+](cc1)CCOCC2`, the EC50 in series [1] was 0.26 µM; in series [2] it was 31.4 µM; in [3], 2.18 µM; in [4], 13 µM; in [7], 215 µM. The figures for the selectivity ratio in series [5] and in [6] were 98.5 and 16.6, respectively.
For the compound `c1cc2ccc1CNc1cc[n+](cc1)CCCCC[n+]1ccc(cc1)NC2`, the EC50 stood at 0.17 µM in [1]; 26.4 µM in series [2]; 0.97 µM in series [3]; 38.3 µM in series [4]; 165 µM in series [7]. The selectivity ratio turned out to be 170 in series [5] and 4.3 in [6].
`C[C@@H]1[C@H](O)[C@@H](C)/C=C/C=C/C=C/C=C/C=C/C=C/C=C/[C@H](O[C@@H]2O[C@H](C)[C@@H](O)[C@H](N)[C@@H]2O)C[C@@H]2O[C@](O)(C[C@@H](O)C[C@@H](O)[C@H](O)CC[C@@H](O)C[C@@H](O)CC(=O)O[C@H]1C)C[C@H](O)[C@H]2C(=O)O` [AMPHOTERICIN B]: the EC50 was found to be 0.32 µM in series [1]; 0.21 µM in series [2]; 0.24 µM in series [3]; 0.28 µM in series [4]; 14.3 µM in series [7]. Besides, the results for the selectivity ratio in series [5] and in series [6] were 59.7 and 51.1, respectively.
As for `c1c[n+]2ccc1NCCOCCNc1cc[n+](cc1)CCOCC2`, the EC50 in series [1] was determined as 0.19 µM; in [2], 23.4 µM; in series [3] it was 2.24 µM; in series [4], 20.7 µM; in series [7], 128 µM. In addition, the figures for the selectivity ratio in [5] and in series [6] were 57.2 and 6.2, respectively.
Turning to `c1cc2ccc1CNc1cc[n+](cc1)CCOCC[n+]1ccc(cc1)NC2`, the concentration giving a half-maximal response (EC50) came out at 26.5 µM in [1]; 76.9 µM in series [2]; 17.2 µM in series [3]; 63.7 µM in [4]; 222 µM in series [7]. Further, the results for the selectivity ratio in series [5] and in [6] were 12.9 and 3.5, respectively.
With `CCCCCCCCCCCCCCCCOP(=O)([O-])OCC[N+](C)(C)C` [MILTEFOSINE], the half-maximal effective concentration (EC50) in series [1] was 16.6 µM; in series [2] it was 6.6 µM; in series [3] it was 10.6 µM; in [4], 0.88 µM; in [7], 26.9 µM. Also, the selectivity ratio in series [5] stood at 2.5; in series [6], 30.5.
Take `c1cc2cc(c1)CNc1cc[n+](cc1)CCCCC[n+]1ccc(cc1)NC2`: the EC50 in [1] was determined as 16.8 µM; in series [2], 52 µM; in series [3], 5.94 µM; in series [4], 13.5 µM; in series [7], 192 µM. In addition, the values for the selectivity ratio in [5] and in series [6] were 32.3 and 14.2, respectively.
Take `c1cc2cc(c1)CNc1cc[n+](cc1)CCOCC[n+]1ccc(cc1)NC2`: the EC50 in series [1] worked out at 5.97 µM; in [2], 33.8 µM; in series [3] it was 8.67 µM; in series [4], 8.92 µM; in series [7], 195 µM. For the same compound, the selectivity ratio in [5] is 22.5.
As to `c1cc2cc(c1)C[n+]1ccc(cc1)NCCOCCNc1cc[n+](cc1)C2`, the EC50 in series [1] came out at 2.87 µM; in series [2], 76.3 µM; in [3] it was 1.61 µM; in [4], 21.2 µM; in [7], 194 µM. Further, the selectivity ratio was 121 in series [5] and 9.2 in [6].
With `c1c[n+]2ccc1NCCOCCNc1cc[n+](cc1)CCCCC2`, the EC50 turned out to be 0.26 µM in [1]; 31.5 µM in series [2]; 2.59 µM in series [3]; 33.2 µM in [4]; 162 µM in [7]. Moreover, the selectivity ratio in series [5] was determined as 62.7; in series [6], 4.9.
For orientation: inhibition means the drop in the measured response relative to a control, in per cent. As to `c1c[n+]2ccc1NCCCCCNc1cc[n+](cc1)CCCCC2`, the EC50 in [1] came out at 0.07 µM; in series [2], 10.6 µM; in [3], 1.26 µM; in series [4], 7.62 µM; in series [7], 154 µM; in [8], 13.5 µM. Also, the half-maximal effective concentration (EC50) in series [9] worked out at 11.5 µM; in series [10], 12 µM; in series [11], 8.84 µM; in series [12] it was 12.7 µM; in [13] it was 10.5 µM; in [14], 11.5 µM. Further, in series [15], the EC50 was 12 µM. The selectivity ratio was found to be 122 in series [5] and 20.2 in series [6]. The inhibition at 0.2 µM in series [16] is over 50%. Moreover, in series [17], the inhibition result was “Active”. For the same compound, the inhibition entry in [18] was “inactive”. Besides, the result in series [19], in series [20] and in [21] was inactive. Also, the result in series [22] was Active. The compound further came in with an inhibition at 30 µM in [23] of 95%. For the same compound, in [24], the Ratio EC50 is 100.
